From article PMC8960095 (Virus Genes, 2022)
Where two headings read alike, the source gives them in different places.

Assays:
wt CHIKV^Brazil [1] = assay: IC50 evaluation: inhibition of CHIKV-induced cell death; assay type: cell-based, Chikungunya virus; settings: for dose-dependent inhibition of CPE / efficacy in Vero-B4: Vero-B4 cells, CHIKV^Brazil, T-1105 range 5–100 µM
wt CHIKV^Brazil [2] = assay: as above; assay type: cell-based, Chikungunya virus; settings: for IC50: Chikungunya virus, 96 h, read-out: IC50 (µM) U138; for dose-dependent inhibition of CPE / antiviral effect in U138: U138 cells, wt CHIKV^Brazil
CHIKV^Brazil = assay type: cell-based, Chikungunya virus; settings: MOI 0.64, RBV 410 µM (p < 0.001), HCQ 10 µM (p < 0.0001)
Toxicity assay [3] = settings: human, U138 cells (non-infected)
U138 cells = assay: Toxicity assay; settings: for cell damage in toxicity testing: non-infected U138, HCQ 10 µM, T-1105 10 and 50 µM, 4 days
Toxicity assay [4] = settings: African green monkey, Vero-B4 cells (non-infected)
wt CHIKV = settings: MOI 0.005, cited from earlier work
Vero-E6 cells = settings: same study as IC50 against wt CHIKV; cited from earlier work
[5] = system: CHIKV Indian Ocean strain 899 (lab); settings: MOI 0.01, Vero cells; cited from earlier work
Vero cells = settings: cited from earlier work
Vero-B4 cells = assay: Toxicity assay; settings: read-out: CC50 (µM) Vero-B4; non-infected Vero-B4 cells; MTS after 4 days

| SMILES | IC50 (wt CHIKV^Brazil [1]; Chikungunya virus, 96 h, read-out: IC50 (µM) Vero-B4) [µM] | dose-dependent inhibition of CPE / efficacy in Vero-B4 (wt CHIKV^Brazil [1]) | IC50 (wt CHIKV^Brazil [2]) [µM] | dose-dependent inhibition of CPE / antiviral effect in U138 (wt CHIKV^Brazil [2]) | protection of U138 cells from CPE by wt CHIKV^Brazil compared with CHIKV^Ross (CHIKV^Brazil) | CC50 at 4 days (Toxicity assay [3]) [µM] | cell damage in toxicity testing (U138 cells) | CC50 at 4 days (Toxicity assay [4]) [µM] | surviving cells (wt CHIKV^Brazil [1]; 1000 µM RBV (highest concentration), infected Vero-B4 cells, at MOI 0.325) [%] | IC50 (wt CHIKV; comparable experiments in Vero-E6 cells) [µM] | IC50 (wt CHIKV; wt CHIKV) [µM] | CC50 (Vero-E6 cells) [µM] | viability at 4 days, 410 µM (Toxicity assay [3]) [%] | IC50 [5] [µM] | CC50 (Vero cells) [µM] | CC50 (U138 cells; read-out: CC50 (µM) U138, non-infected U138 cells, MTS after 4 days) [µM] | CC50 (Vero-B4 cells) [µM] |
| --- | --- | --- | --- | --- | --- | --- | --- | --- | --- | --- | --- | --- | --- | --- | --- | --- | --- |
| CCN(CCO)CCCC(C)Nc1ccnc2cc(Cl)ccc12 (stereo not shown) [Hydroxychloroquine, hydroxychloroquine] | 18.3 | dose-dependent inhibition of CPE | 4.14 | dose-dependent inhibition of CPE | significantly better | 35.5 | Neither T-1105 nor HCQ led to significant cell damage | 49.6 | – | – | – | – | – | – | – | – | – |
| NC(=O)c1ncn([C@@H]2O[C@H](CO)[C@@H](O)[C@H]2O)n1 [Ribavirin, ribavirin] | – | dose-dependent inhibition of CPE | 166 | dose-dependent inhibition of CPE | significantly better | > 500 | – | > 1000 | 37.55 ± 6.15 | 424 to 766 | 424 | > 500 | 70.4 ± 13.1 | – | – | – | – |
| NC(=O)c1ncc[nH]c1=O [T-1105] | – | no dose-dependent efficacy | – | dose-dependent effect | – | – | Neither T-1105 nor HCQ led to significant cell damage | – | – | – | – | – | – | 7 to 47 | 571 | > 100 | > 100 |
| CCN(CC)CCCC(C)Nc1ccnc2cc(Cl)ccc12 (stereo not shown) [CQ, chloroquine] | – | – | – | – | – | – | – | – | – | – | 5 to 10.6 | > 36 | – | – | – | – | – |
